Results taken from patent US10464896B2, “Efflux-pump inhibitors and therapeutic uses thereof” (Basilea Pharmaceutica International AG, priority 2015, dated 2019).

Tested on: E. coli ATCC25922
Experiment: Antibacterial activity in combination with minocycline (growth inhibition)
Assay type: cell-based
Settings: Escherichia coli, ATCC25922, compound at 25 μM; minocycline 0.25 μg/mL; OD625 23 h minus 1 h; read-out: residual growth of E. coli ATCC25922 (% of uninhibited control) with minocycline
Summary of the method: (§1)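 Test compound combined with fixed subinhibitory partner antibiotic: linezolid 128 μg/mL for either strain, minocycline 0.25 μg/mL (E. coli) or 8 μg/mL (P. aeruginosa), in caMHB shaken at 37 °C. Residual growth as % of inhibitor-free control, from OD625 at 23 h minus 1 h.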

Structure (SMILES) | activity at 25 µM
C=CCOc1ccc(OCc2ccc(Cl)cc2Br)cc1CNCC1CCNC1 (stereo not drawn) [Example 412] | ≤ 10%
C=CCOc1ccc(OCc2ccc(Cl)cc2Br)cc1CNCC1CNC1 [Example 413] | ≤ 10%
CC(C)COc1ccc(OCc2ccc(Cl)cc2Br)cc1CNCC1CCNC1 (stereo not drawn) [Example 416] | ≤ 10%
C=CCOc1ccc(/C=C/c2ccc(Cl)cc2Br)cc1CNCC1CCNC1 (stereo not drawn) [Example 419] | ≤ 10%
C=CCOc1ccc(/C=C/c2ccc(Cl)cc2Br)cc1CNCC1CNC1 [Example 421] | ≤ 10%
CC(C)COc1ccc(OCc2ccc(Cl)cc2Br)cc1CNCC1CNC1 [Example 422] | ≤ 10%
O=c1[nH]nc(CCOc2cc(/C=C/c3ccc(Cl)cc3Br)cc(CNCC3CCNC3)c2)o1 (stereo not drawn) [Example 429] | ≤ 10%
Cc1noc(C)c1CCOc1cc(/C=C/c2ccc(Cl)cc2Br)cc(CNCC2CCNC2)c1 (stereo not drawn) [Example 430] | ≤ 10%
CC(C)COc1ccc(/C=C/c2ccc(Cl)cc2Br)cc1CNCC1CCNC1 (stereo not drawn) [Example 431] | ≤ 10%
Cc1n[nH]c(C)c1CCOc1cc(/C=C/c2ccc(Cl)cc2Br)cc(CNCC2CCNC2)c1 (stereo not drawn) [Example 433] | ≤ 10%
C=CCOc1cc(/C=C/c2ccc(Cl)cc2Br)cc(CNCC(=O)NCC2CNC2)c1 [Example 443] | ≤ 10%
C=CCOc1cc(/C=C/c2ccc(Cl)cc2Br)cc(C[N+](C)(C)CC(=O)NCC2CNC2)c1 [Example 444] | ≤ 10%
N#Cc1cncc(/C=C/c2cc(OCc3ccccc3)cc(CNCC3CCNC3)n2)c1 (stereo not drawn) [Example 446] | ≤ 10%
C=CCOc1cc(/C=C/c2ccc(Cl)cc2Br)cc(CN(CC2CNC2)CC2CNC2)c1 [Example 448] | ≤ 10%
C=CCOc1cc(/C=C/c2ccc(Cl)cc2Br)cc(CNCCNC(=O)C2CNC2)c1 [Example 450] | ≤ 10%
C=CCOc1cc(/C=C/c2ccc(Cl)cc2Br)cc(C(=O)NCCNCC2CNC2)c1 [Example 451] | ≤ 10%
C=CCOc1cc(/C=C/c2ccc(Cl)cc2Br)cc(CNC(=O)C[N+](C)(C)CC2CNC2)c1 [Example 452] | ≤ 10%
C=CCOc1cc(/C=C/c2ccc(Cl)cc2Br)cc(CNCCNCC2CNC2)c1 [Example 453] | ≤ 10%

Structure (SMILES) | activity at 25 µM
C=CCOc1cc(/C=C/c2ccc(Cl)cc2Br)cc(CNCCN(CC2CNC2)CC2CNC2)c1 [Example 455] | ≤ 10%
C=CCOc1cc(/C=C/c2ccc(Cl)cc2Br)cc(C(=O)N(CC2CNC2)CC2CNC2)c1 [Example 456] | ≤ 10%
C=CCOc1cc(/C=C/c2cncc(C(=O)OC)c2)cc(CNCC2CCNC2)c1 (stereo not drawn) [Example 457] | ≤ 10%
CC(C)COc1cc(/C=C/c2cccnc2)cc(C[N+](C)(C)CC2CCNC2)c1 (stereo not drawn) [Example 459] | ≤ 10%
CC(C)COc1cc(/C=C/c2cncc(C#N)c2)cc(C[N+](C)(C)CC2CCNC2)c1 (stereo not drawn) [Example 460] | ≤ 10%
Clc1ccc(COc2ccc(OCCc3c[nH]cn3)c(CNCC3CCNC3)c2)c(Br)c1 (stereo not drawn) [Example 463] | ≤ 10%
Clc1ccc(/C=C/c2ccc(OCCc3c[nH]cn3)c(CNCC3CCNC3)c2)c(Br)c1 (stereo not drawn) [Example 464] | ≤ 10%
Clc1ccc(COc2ccc(OCCc3c[nH]cn3)c(CNCC3CNC3)c2)c(Br)c1 [Example 465] | ≤ 10%
Clc1ccc(/C=C/c2ccc(OCCc3c[nH]cn3)c(CNCC3CNC3)c2)c(Br)c1 [Example 471] | ≤ 10%
Clc1ccc(/C=C/c2cc(OCCCNCC3CNC3)cc(OCCc3ccncc3)c2)c(Br)c1 [Example 509] | ≤ 10%
Cc1cc(COc2ccc(OCCCNCC3CNC3)c(/C=C/c3ccc(Cl)cc3Br)c2)no1 [Example 512] | ≤ 10%
CC(C)COc1ccc(/C=C/c2ccc(Cl)cc2Br)cc1OCCCNCC1CNC1 [Example 513] | ≤ 10%
O=C(NCCNC(=O)C1CNC1)c1cc(/C=C/c2ccc(Cl)cc2Br)cc(OCCc2ccncc2)c1 [Example 515] | ≤ 10%
Clc1ccc(/C=C/c2cc(OCCCCNCC3CNC3)cc(OCCc3ccncc3)c2)c(Br)c1 [Example 517] | ≤ 10%
O=C(NCCNCC1CNC1)c1cc(/C=C/c2ccc(Cl)cc2Br)cc(OCCc2ccncc2)c1 [Example 518] | ≤ 10%
Clc1ccc(/C=C/c2cc(OCc3ccncc3)ccc2OCCCNCC2CNC2)c(Br)c1 [Example 519] | ≤ 10%
Cc1cc(COc2ccc(/C=C/c3ccc(Cl)cc3Br)cc2CNC(=O)C2CCNC2)no1 (stereo not drawn) [Example 523] | ≤ 10%
Clc1ccc(/C=C/c2cc(OCCc3ccncc3)ccc2OCCCNCC2CNC2)c(Br)c1 [Example 525] | ≤ 10%

Same assay, conditions: Escherichia coli, ATCC25922, compound at 50 μM; minocycline 0.25 μg/mL; OD625 23 h minus 1 h; read-out: residual growth of E. coli ATCC25922 (% of uninhibited control) with minocycline

Structure (SMILES) | activity at 50 µM
C=CCOc1cc(CNCC2CNC2)cc(OCCc2cccnc2)c1 [Example 414] | ≤ 50%
C=CCOc1cc(CNCC2CCNC2)cc(OCc2cccnc2)c1 (stereo not drawn) [Example 417] | ≤ 50%
C=CCOc1cc(CNCC2CCNC2)cc(OCCc2cccnc2)c1 (stereo not drawn) [Example 418] | ≤ 50%
C=CCOc1cc(CNCC2CNC2)cc(OCCc2ccncc2)c1 [Example 423] | ≤ 50%
C(=C\c1cc(CNCC2CNC2)cc(OCCc2ccncc2)c1)/c1cccnc1 [Example 438] | ≤ 50%
CC(C)COc1cc(CNCC2CCNC2)cc(NC(=O)c2cccnc2)c1 (stereo not drawn) [Example 485, N-[3-isobutoxy-5-[(pyrrolidin-3-ylmethylamino)methyl]phenyl]pyridine-3-carboxamide] | ≤ 50%
C=CCOc1cc(/C=C/c2cncc(O)c2)cc(CNCC2CCNC2)c1 (stereo not drawn) [Example 499] | ≤ 50%

Tested on: P. aeruginosa PAO1
Experiment: as above
Assay type: cell-based
Settings: Pseudomonas aeruginosa, PAO1, compound at 50 μM; minocycline 8 μg/mL; OD625 23 h minus 1 h; read-out: residual growth of P. aeruginosa PAO1 (% of uninhibited control) with minocycline
Summary of the method: as §1

Structure (SMILES) | activity at 50 µM
Clc1ccc(OCc2ccc(CNCC3CNC3)o2)c(Br)c1 [Example 93] | ≤ 50%
CS(=O)(=O)c1ccc(COc2cccc(CNCC3CNC3)c2)c(Cl)c1 [Example 102] | ≤ 50%
Ic1ccc(COc2cccc(CNCC3CNC3)c2)cc1 [Example 206] | ≤ 50%
O=C(O)c1ccc(COc2cc(CNCC3CNC3)cc(OCc3ccc(Cl)cc3Br)c2)cc1 [Example 208] | ≤ 50%
Brc1ccccc1COc1cccc(CNCC2CCNC2)c1 (stereo not drawn) [Example 220] | ≤ 50%
C=CCOc1cc(CNCC2CCNC2)cc(CNC(=O)c2ccc(Cl)cc2Br)c1 (stereo not drawn) [Example 349] | ≤ 50%
C=CCOc1cc(CNCC2CNC2)cc(OCc2cc(C)on2)c1 [Example 420] | ≤ 50%
C=CCOc1cc(CNCC2CCNC2)cc(OCCc2ccncc2)c1 (stereo not drawn) [Example 424] | ≤ 50%
c1cncc(COc2cc(CNCC3CNC3)cc(OCCc3ccncc3)c2)c1 [Example 425] | ≤ 50%
C=CCOc1cc(CNCC2CNC2)cc(OCc2cncc(C(N)=O)c2)c1 [Example 437] | ≤ 50%
C(=C\c1cc(CNCC2CCNC2)cc(OCCN2CCOCC2)c1)/c1cccnc1 (stereo not drawn) [Example 440] | ≤ 50%
C=CCOc1cc(/C=C/c2cncc(C(N)=O)c2)cc(CNCC2CCNC2)c1 (stereo not drawn) [Example 458] | ≤ 50%
N#Cc1cncc(/C=C/c2cc(CNCC3CCNC3)cc(OCc3ccccn3)c2)c1 (stereo not drawn) [Example 474] | ≤ 50%
CC(C)COc1cc(CNCC2CCNC2)cc(CNC(=O)c2cccc(C(N)=O)c2)c1 (stereo not drawn) [Example 477, N1-[[3-isobutoxy-5-[(pyrrolidin-3-ylmethylamino)methyl]phenyl]methyl]benzene-1,3-dicarboxamide] | ≤ 50%
